According to ChEMBL document CHEMBL3875218, “Bifunctional conjugates with potent inhibitory activity towards cyclooxygenase and histone deacetylase” (Bioorg Med Chem, 2017):

Experiments:
[1] = Cytotoxicity against African green monkey Vero cells assessed as cell growth inhibition after 72 hrs by MTT assay; assay type: toxicity, cell-based; conditions: African green monkey (Chlorocebus sabaeus)
[2] = Cytotoxicity against human HeLa cells assessed as cell growth inhibition after 72 hrs by MTT assay
LNCaP [3] = assay: Induction of cell cycle arrest in human LNCAP cells assessed as accumulation at lesser G1 phase at 2.5 uM after 24 hrs by propidium iodide staining based FACS analysis (reference value: 1.59%); assay type: functional
LNCaP [4] = assay: Induction of cell cycle arrest in human LNCAP cells assessed as accumulation at G1 phase at 2.5 uM after 24 hrs by propidium iodide staining based FACS analysis (reference value: 69.5%); assay type: functional
LNCaP [5] = assay: Induction of cell cycle arrest in human LNCAP cells assessed as accumulation at S phase at 2.5 uM after 24 hrs by propidium iodide staining based FACS analysis (reference value: […]); assay type: functional
LNCaP [6] = assay: Induction of cell cycle arrest in human LNCAP cells assessed as accumulation at G2 phase at 2.5 uM after 24 hrs by propidium iodide staining based FACS analysis (reference value: 1.08%); assay type: functional
LNCaP [7] = assay: Induction of cell cycle arrest in human LNCAP cells assessed as accumulation at greater G2 phase at 2.5 uM after 24 hrs by propidium iodide staining based FACS analysis (reference value: 0.20%); assay type: functional
Histone deacetylase 1 = Histone deacetylase 1 (Homo sapiens, UniProt Q13547); assay: Inhibition of HDAC1 (unknown origin) after 24 hrs by SAMDI mass spectroscopic analysis
Histone deacetylase 2 = Histone deacetylase 2 (Homo sapiens, UniProt Q92769); assay: Inhibition of HDAC2 (unknown origin) after 24 hrs by SAMDI mass spectroscopic analysis
Histone deacetylase 3 = Histone deacetylase 3 (Homo sapiens, UniProt O15379); assay: Inhibition of HDAC3 (unknown origin) after 5 hrs by SAMDI mass spectroscopic analysis
[8] = target: T1, Protein deacetylase HDAC6 (Homo sapiens, UniProt Q9UBN7); assay: Inhibition of HDAC6 (unknown origin) after 20 hrs by SAMDI mass spectroscopic analysis
T1 sequence (Q9UBN7 whole entry): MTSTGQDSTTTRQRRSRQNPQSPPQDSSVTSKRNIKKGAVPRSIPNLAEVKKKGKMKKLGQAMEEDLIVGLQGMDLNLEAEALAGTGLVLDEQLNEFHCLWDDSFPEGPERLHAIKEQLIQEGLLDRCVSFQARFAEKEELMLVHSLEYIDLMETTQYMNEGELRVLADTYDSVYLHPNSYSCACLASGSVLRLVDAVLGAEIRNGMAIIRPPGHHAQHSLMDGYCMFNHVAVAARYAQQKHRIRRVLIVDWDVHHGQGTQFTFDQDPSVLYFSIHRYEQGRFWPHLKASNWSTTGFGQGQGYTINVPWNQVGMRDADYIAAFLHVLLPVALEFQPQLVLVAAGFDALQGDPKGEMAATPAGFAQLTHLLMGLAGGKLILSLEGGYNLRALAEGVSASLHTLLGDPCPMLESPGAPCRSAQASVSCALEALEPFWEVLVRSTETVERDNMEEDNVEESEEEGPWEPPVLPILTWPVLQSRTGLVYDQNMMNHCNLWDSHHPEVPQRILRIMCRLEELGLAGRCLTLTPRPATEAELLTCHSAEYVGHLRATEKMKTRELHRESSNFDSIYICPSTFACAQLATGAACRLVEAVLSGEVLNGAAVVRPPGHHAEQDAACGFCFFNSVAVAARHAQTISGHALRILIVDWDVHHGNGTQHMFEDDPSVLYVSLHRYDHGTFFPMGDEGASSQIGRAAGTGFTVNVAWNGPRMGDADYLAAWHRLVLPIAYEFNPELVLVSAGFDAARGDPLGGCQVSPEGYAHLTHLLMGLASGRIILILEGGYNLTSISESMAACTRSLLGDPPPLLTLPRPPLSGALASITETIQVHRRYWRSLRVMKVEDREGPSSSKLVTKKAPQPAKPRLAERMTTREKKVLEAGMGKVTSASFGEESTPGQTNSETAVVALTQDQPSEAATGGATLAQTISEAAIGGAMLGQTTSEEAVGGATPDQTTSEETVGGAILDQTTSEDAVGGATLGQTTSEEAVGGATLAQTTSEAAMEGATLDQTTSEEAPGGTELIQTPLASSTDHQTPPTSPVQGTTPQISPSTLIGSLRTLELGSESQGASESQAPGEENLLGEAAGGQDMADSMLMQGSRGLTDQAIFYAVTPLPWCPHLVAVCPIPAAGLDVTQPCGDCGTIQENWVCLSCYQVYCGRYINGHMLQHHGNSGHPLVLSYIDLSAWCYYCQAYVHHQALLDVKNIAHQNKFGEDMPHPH

Histone deacetylase 8 = target: T2, Histone deacetylase 8 (Homo sapiens, UniProt Q9BY41); assay: Inhibition of HDAC8 (unknown origin) after 2.5 hrs by SAMDI mass spectroscopic analysis
T2 sequence (Q9BY41 whole entry): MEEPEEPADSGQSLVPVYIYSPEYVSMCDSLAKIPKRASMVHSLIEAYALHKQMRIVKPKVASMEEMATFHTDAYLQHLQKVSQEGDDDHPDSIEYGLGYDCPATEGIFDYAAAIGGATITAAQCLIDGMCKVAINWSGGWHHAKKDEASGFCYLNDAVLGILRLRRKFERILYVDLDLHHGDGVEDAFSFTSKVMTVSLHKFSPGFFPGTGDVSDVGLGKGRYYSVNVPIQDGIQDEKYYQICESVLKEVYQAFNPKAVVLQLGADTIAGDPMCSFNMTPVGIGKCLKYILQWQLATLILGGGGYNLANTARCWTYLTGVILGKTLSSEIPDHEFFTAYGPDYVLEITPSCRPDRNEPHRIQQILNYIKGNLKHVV

[9] = target: T3, Prostaglandin G/H synthase 1 (Ovis aries) (UniProt P05979); assay: Inhibition of sheep COX1 at 10 uM using arachidonic acid as substrate preincubated for 15 mins followed by substrate addition for 2 mins by Cayman based fluorescence assay
T3 sequence (whole entry): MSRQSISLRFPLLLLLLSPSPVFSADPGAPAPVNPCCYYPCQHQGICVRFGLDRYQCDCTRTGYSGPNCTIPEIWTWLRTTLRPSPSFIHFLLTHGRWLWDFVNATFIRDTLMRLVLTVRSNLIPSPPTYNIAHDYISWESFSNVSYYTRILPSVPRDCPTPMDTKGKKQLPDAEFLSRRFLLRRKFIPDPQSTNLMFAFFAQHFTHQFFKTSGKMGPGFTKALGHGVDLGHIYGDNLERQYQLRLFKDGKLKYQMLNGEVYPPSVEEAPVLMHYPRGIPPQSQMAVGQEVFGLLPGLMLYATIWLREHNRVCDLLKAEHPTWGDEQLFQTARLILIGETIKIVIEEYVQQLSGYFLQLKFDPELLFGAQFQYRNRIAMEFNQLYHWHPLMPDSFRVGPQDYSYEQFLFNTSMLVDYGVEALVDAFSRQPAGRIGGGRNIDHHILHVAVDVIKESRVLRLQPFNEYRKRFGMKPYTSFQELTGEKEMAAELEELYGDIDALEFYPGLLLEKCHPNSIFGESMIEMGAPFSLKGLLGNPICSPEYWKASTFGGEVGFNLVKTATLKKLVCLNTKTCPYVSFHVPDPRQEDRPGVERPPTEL

[10] = target: T4, Prostaglandin G/H synthase 2 (Homo sapiens) (UniProt P35354); assay: Inhibition of recombinant human COX2 at 10 uM using arachidonic acid as substrate preincubated for 15 mins followed by substrate addition for 2 mins by Cayman based fluorescence assay
T4 sequence (whole entry): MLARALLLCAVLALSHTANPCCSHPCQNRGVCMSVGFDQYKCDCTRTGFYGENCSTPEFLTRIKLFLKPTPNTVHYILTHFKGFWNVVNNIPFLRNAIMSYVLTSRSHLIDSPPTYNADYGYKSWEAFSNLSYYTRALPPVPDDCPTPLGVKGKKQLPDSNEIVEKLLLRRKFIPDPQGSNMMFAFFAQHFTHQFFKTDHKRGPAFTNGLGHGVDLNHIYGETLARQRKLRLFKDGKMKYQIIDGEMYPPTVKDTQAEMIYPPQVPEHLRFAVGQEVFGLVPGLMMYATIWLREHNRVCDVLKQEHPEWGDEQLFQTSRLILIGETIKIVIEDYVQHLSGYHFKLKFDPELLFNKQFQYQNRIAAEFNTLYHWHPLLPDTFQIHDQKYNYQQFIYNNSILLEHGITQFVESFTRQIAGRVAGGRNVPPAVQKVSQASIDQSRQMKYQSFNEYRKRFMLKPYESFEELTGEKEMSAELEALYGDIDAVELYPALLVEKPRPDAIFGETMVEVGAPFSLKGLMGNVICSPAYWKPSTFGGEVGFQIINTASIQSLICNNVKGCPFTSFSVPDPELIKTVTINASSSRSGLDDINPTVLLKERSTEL

[11] = Cytotoxicity against human MCF7 cells assessed as cell growth inhibition after 72 hrs by MTT assay; assay type: functional, cell-based; conditions: MCF7, 72 h
[12] = Cytotoxicity against human A549 cells assessed as cell growth inhibition after 72 hrs by MTT assay; assay type: functional, cell-based; conditions: A549, 72 h
[13] = Cytotoxicity against human HCT116 cells assessed as cell growth inhibition after 72 hrs by MTT assay; assay type: functional, cell-based; conditions: HCT-116, 72 h
[14] = Cytotoxicity against human LNCAP cells assessed as cell growth inhibition after 72 hrs by MTT assay; assay type: functional, cell-based
[15] = target: T5, Prostaglandin G/H synthase 2 (Homo sapiens, UniProt P35354); assay: Inhibition of recombinant human COX2 using arachidonic acid as substrate preincubated for 15 mins followed by substrate addition for 2 mins by Cayman based fluorescence assay
T5 sequence (P35354 whole entry): T4 sequence (whole entry)

[16] = target: T6, Prostaglandin G/H synthase 1 (Ovis aries, UniProt P05979); assay: Inhibition of sheep COX1 using arachidonic acid as substrate preincubated for 15 mins followed by substrate addition for 2 mins by Cayman based fluorescence assay
T6 sequence (P05979 whole entry): T3 sequence (whole entry)

Histone deacetylase 1, sequence (Q13547 whole entry): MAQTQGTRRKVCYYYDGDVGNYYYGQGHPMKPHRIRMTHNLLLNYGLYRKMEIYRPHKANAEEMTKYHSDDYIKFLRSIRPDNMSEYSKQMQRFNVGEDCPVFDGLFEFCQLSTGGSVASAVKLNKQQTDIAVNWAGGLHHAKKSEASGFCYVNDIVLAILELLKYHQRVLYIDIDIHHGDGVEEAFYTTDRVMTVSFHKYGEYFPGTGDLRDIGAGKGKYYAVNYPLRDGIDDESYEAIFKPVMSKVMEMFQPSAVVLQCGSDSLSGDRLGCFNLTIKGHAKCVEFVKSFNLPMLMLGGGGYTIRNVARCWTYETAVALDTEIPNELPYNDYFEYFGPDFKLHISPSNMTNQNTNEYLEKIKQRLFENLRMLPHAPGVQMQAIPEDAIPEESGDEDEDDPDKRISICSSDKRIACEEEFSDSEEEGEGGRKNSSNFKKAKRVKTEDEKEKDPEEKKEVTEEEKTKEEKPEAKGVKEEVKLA
Histone deacetylase 2, sequence (Q92769 whole entry): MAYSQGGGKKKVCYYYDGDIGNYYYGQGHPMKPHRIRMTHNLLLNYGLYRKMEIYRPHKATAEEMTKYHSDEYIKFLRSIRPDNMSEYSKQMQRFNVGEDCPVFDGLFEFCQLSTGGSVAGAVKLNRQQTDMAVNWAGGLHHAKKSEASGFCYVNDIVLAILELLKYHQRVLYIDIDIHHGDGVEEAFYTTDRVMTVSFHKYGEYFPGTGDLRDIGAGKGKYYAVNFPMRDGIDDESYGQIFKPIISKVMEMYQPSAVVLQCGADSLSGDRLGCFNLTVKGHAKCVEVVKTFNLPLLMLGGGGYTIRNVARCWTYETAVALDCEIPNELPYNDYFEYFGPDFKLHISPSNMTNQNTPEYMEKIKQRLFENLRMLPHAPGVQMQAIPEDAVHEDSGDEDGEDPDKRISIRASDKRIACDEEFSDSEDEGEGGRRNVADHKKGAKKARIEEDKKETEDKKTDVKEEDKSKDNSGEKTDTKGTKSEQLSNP
Histone deacetylase 3, sequence (O15379 whole entry): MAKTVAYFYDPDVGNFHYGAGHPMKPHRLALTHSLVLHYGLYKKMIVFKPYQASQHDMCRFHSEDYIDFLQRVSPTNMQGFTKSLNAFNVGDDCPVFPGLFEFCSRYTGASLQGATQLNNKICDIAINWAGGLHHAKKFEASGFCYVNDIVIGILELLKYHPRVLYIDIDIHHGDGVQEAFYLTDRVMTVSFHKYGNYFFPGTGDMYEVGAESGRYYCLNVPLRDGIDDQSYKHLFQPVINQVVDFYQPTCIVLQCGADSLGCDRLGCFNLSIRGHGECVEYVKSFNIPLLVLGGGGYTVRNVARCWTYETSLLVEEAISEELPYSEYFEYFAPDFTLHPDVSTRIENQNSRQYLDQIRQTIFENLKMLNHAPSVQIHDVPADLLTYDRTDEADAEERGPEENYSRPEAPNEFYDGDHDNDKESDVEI

O=C(CCCCCCC(=O)Nc1ccccc1)NO [VORINOSTAT]
IC50 at 72 h [1]: 1.03 µM | IC50 [2]: 2.12 µM | Activity (LNCaP [3]): -4.88% | Activity (LNCaP [4]): 85.6% | Activity (LNCaP [5]): 18.4% | Activity (LNCaP [6]): 0.69% | Activity (LNCaP [7]): 0.31%

Cc1ccc(-c2cc(C(=O)NCCCCCCC(=O)NO)nn2-c2ccc(S(N)(=O)=O)cc2)cc1
IC50 (Histone deacetylase 1): 0.208 µM | IC50 (Histone deacetylase 2): 0.294 µM | IC50 (Histone deacetylase 3): 0.333 µM | IC50 [8]: 0.083 µM | IC50 (Histone deacetylase 8): 0.52 µM | inhibition [9]: 26.4% | inhibition [10]: 71.1% | IC50 [11]: > 100 µM | IC50 [12]: > 100 µM | IC50 [13]: 25 µM | IC50 [14]: > 20 µM | IC50 at 72 h [1]: > 100 µM

Cc1ccc(-c2cc(C(F)(F)F)nn2-c2ccc(S(=O)(=O)NCCCCCC(=O)NO)cc2)cc1
IC50 (Histone deacetylase 1): 1.87 µM | IC50 (Histone deacetylase 2): 2.06 µM | IC50 (Histone deacetylase 3): 1.02 µM | IC50 [8]: 0.076 µM | IC50 (Histone deacetylase 8): 0.226 µM | inhibition [9]: 16.2% | inhibition [10]: 97.7% | IC50 [11]: 7.77 µM | IC50 [12]: 10.4 µM | IC50 [13]: 8.74 µM | IC50 [14]: 8.88 µM | IC50 at 72 h [1]: 6.83 µM

COC(=O)Cc1c(C)n(Cc2ccc(-c3cn(CCCCCC(=O)NO)nn3)cc2)c2ccc(OC)cc12
IC50 (Histone deacetylase 1): 0.778 µM | IC50 (Histone deacetylase 2): 1.36 µM | IC50 (Histone deacetylase 3): 0.224 µM | IC50 [8]: 6.83 µM | IC50 (Histone deacetylase 8): 0.672 µM | inhibition [10]: 11.5% | IC50 [11]: 14.2 µM | IC50 [13]: 9.31 µM | IC50 [14]: > 20 µM | IC50 at 72 h [1]: 37.8 µM

Cc1ccc(-c2cc(C(=O)NCCCCCC(=O)NO)nn2-c2ccc(S(N)(=O)=O)cc2)cc1
IC50 (Histone deacetylase 1): 0.4 µM | IC50 (Histone deacetylase 2): 0.232 µM | IC50 (Histone deacetylase 3): 0.191 µM | IC50 [8]: 0.092 µM | IC50 (Histone deacetylase 8): 0.544 µM | inhibition [10]: 19.1% | IC50 [11]: > 100 µM | IC50 [12]: > 100 µM | IC50 at 72 h [1]: > 100 µM

Cc1ccc(-c2cc(C(=O)NCCCCCCCC(=O)NO)nn2-c2ccc(S(N)(=O)=O)cc2)cc1
IC50 (Histone deacetylase 1): 0.06 µM | IC50 (Histone deacetylase 2): 0.032 µM | IC50 (Histone deacetylase 3): 0.033 µM | IC50 [8]: 0.183 µM | IC50 (Histone deacetylase 8): 0.697 µM | inhibition [10]: 66.9% | IC50 [11]: 59.5 µM | IC50 [12]: 34.1 µM | IC50 [13]: 7.12 µM | IC50 [14]: > 20 µM | IC50 at 72 h [1]: 12.1 µM

COC(=O)Cc1c(C)n(Cc2ccc(-c3cn(CCCCCCCC(=O)NO)nn3)cc2)c2ccc(OC)cc12
IC50 [15]: 4.58 µM | IC50 (Histone deacetylase 1): 0.251 µM | IC50 (Histone deacetylase 2): 0.209 µM | IC50 (Histone deacetylase 3): 0.181 µM | IC50 [8]: 0.005 µM | IC50 (Histone deacetylase 8): 0.394 µM | inhibition [9]: 7.08% | inhibition [10]: 78.2% | IC50 [16]: 12 µM | IC50 [13]: 1.28 µM | IC50 [14]: 1.53 µM | IC50 at 72 h [1]: 5.73 µM
